Here are results for seven compounds from patent US20240109934A1, “ANTIBIOTICS WITH IMPROVED DRUG RESISTANCE PROFILE” (priority 2021, published 2024).

In brackets after ≈: the same amount, converted by molar mass.

For series [1], the system named is S. aureus ATCC 29213. Kind of series: MIC by micro-dilution broth method (CLSI). It counts as cell-based. Particulars: for Antibacterial activity relative to FA: S. aureus ATCC 29213 MIC. Background: Dilution methods test growth across graded concentrations, often in twofold steps.
Series [2] has as its system S. aureus ATCC 29213. Put plainly: Resistance frequency, large inoculum method. It counts as cell-based. Particulars: head-to-head with FA, 2×-32× the MIC. Here is the method: Selection of Resistant Mutants. Resistant mutants were selected via the large inoculum method. Briefly, S. aureus ATCC 29213 (1×10^9 CFU) were plated on 100 mm plates of LB agar containing 4, 2, 1, 0.5, and 0.25 μg/mL.

The nature of series [3]: Mouse liver microsome stability assay. It counts as in vitro ADME. Particulars: 3 h at 37° C., LC-MS/MS, ± SEM of 3 biological replicates. Here is the method:
Mouse Liver Microsome Stability Assay. A mixture of PBS (pH 7.4), NADPH regenerating system solution A (Corning Life Sciences), and NADPH regenerating system solution B (Corning Life Sciences) was incubated at 37° C. in a shaking incubator for 5 min. Next, compound was added in DMSO (final concentration 50 μM, 0.5% DMSO) before ice-cold mouse liver microsomes (Thermo Fisher, male CD-1 mice, pooled) were added (final protein concentration of 1 mg/mL). An aliquot was immediately removed, quenched with an equal volume of 100 μM internal standard and centrifuged at 13,000 rcf for 3 min. The reactions were incubated at 37° C. in a shaking incubator for 3 h. A second aliquot was removed and quenched. Samples were analyzed with the 5500 QTRAP LC/MS/MS system (Sciex, Framingham, MA) in Metabolomics Lab of Roy J. Carver Biotechnology Center, University of Illinois at Urbana-Champaign. Software Analyst 1.6.2 was used for data acquisition and analysis. The 1200 series HPLC system (Agilent Technologies, Santa Clara, CA) includes a degasser, an autosampler, and a binary pump. The LC separation was performed on an Agilent Sb-Aq column (4.6×50 mm, […]) with mobile phase A (0.1% formic acid in water) and mobile phase B (0.1% formic acid in acetonitrile). The flow rate was 0.3 mL/min. The linear gradient was as follows: 0-3 min, 100% A; 10-16 min, 5% A; 16.5-22 min, 100% A. The autosampler was set at 10° C. The injection volume was 1 μL. Mass spectra were acquired under both positive (ion spray voltage was +5500 V) and negative (ion spray voltage was −4500 V) electrospray ionization (ESI). The source temperature was 450° C. The curtain gas, ion source gas 1, and ion source gas 2 were 33, 65, and 60 psi, respectively. Multiple reaction monitoring (MRM) was used for quantitation.
Background: Microsomes from liver hold many membrane-bound enzymes, among them those of drug oxidation.

Another series has as its system S. aureus 29213. Kind of series: MIC shift with 50% human serum. The class given is cell-based. The following applies: S. aureus 29213, 50% human serum vs none. Here is the method: Antimicrobial Susceptibility Tests. Susceptibility testing was performed in biological triplicate, using the micro-dilution broth method as outlined by the Clinical and Laboratory Standards Institute. […] Human serum (Ultrafiltrate, unspecified gender, 30K Dalton membrane filtered) was purchased from BioIVT (Hicksville, NY).

In series [4] the test system is multidrug-resistant clinical isolates of S. aureus. Kind of series: MIC against multidrug-resistant clinical isolates of S. aureus. The following applies: Staphylococcus aureus. The class given is cell-based.
Series [5] deals with multidrug-resistant clinical isolates of E. faecium. Kind of series: MIC against multidrug-resistant clinical isolates of E. faecium. The class given is cell-based.

As to `CC(=O)O[C@H]1C[C@@]2(C)[C@@H](C[C@@H](O)[C@H]3[C@@]4(C)CC[C@@H](O)[C@@H](C)[C@@H]4CC[C@@]32C)/C1=C(\CCC=C(Cl)Cl)C(=O)O` [Compound 15, (Z)-2-((3R,4S,5S,8S,9S,10S,11R,13R,14S,16S)-16-acetoxy-3,11-dihydroxy-4,8,10,14-tetramethylhexadecahydro-17H-cyclopenta[a]phenanthren-17-ylidene)-6,6-dichlorohex-5-enoic acid], the “Antibacterial activity relative to FA” value in the series on S. aureus ATCC 29213 [1] is reported as “modest decreases in potency relative to FA”.

With `CC(=O)O[C@H]1C[C@@]2(C)[C@@H](C[C@@H](O)[C@H]3[C@@]4(C)CC[C@@H](O)[C@@H](C)[C@@H]4CC[C@@]32C)/C1=C(\CCC=C(I)I)C(=O)O` [Compound 17, (Z)-2-((3R,4S,5S,8S,9S,10S,11R,13R,14S,16S)-16-acetoxy-3,11-dihydroxy-4,8,10,14-tetramethylhexadecahydro-17H-cyclopenta[a]phenanthren-17-ylidene)-6,6-diiodohex-5-enoic acid], the “Antibacterial activity relative to FA” value in the series on S. aureus ATCC 29213 [1] is recorded as “modest decreases in potency relative to FA”.

As to `CC(=O)O[C@H]1C[C@@]2(C)[C@@H](C[C@@H](O)[C@H]3[C@@]4(C)CC[C@@H](O)[C@@H](C)[C@@H]4CC[C@@]32C)/C1=C(\CCC=C(F)F)C(=O)O` [Compound 19, (Z)-2-((3R,4S,5S,8S,9S,10S,11R,13R,14S,16S)-16-acetoxy-3,11-dihydroxy-4,8,10,14-tetramethylhexadecahydro-17H-cyclopenta[a]phenanthren-17-ylidene)-6,6-difluorohex-5-enoic acid], the “Antibacterial activity relative to FA” value with S. aureus ATCC 29213 [1] is “modest decreases in potency relative to FA”.

Consider `C=CCC/C(C(=O)O)=C1/[C@@H](OC(C)=O)C[C@@]2(C)[C@H]1C[C@@H](O)[C@H]1[C@@]3(C)CC[C@@H](O)[C@@H](C)[C@@H]3CC[C@@]12C` [Compound 21], for which the “Antibacterial activity relative to FA” value in the series with S. aureus ATCC 29213 [1] is given as “modest decreases in potency relative to FA”.

Regarding `CC(=O)O[C@H]1C[C@@]2(C)[C@@H](C[C@@H](O)[C@H]3[C@@]4(C)CC[C@@H](O)[C@@H](C)[C@@H]4CC[C@@]32C)/C1=C(\CCC=C1CCOCC1)C(=O)O` [Compound 27, (Z)-2-((3R,4S,5S,8S,9S,10S,11R,13R,14S,16S)-16-acetoxy-3,11-dihydroxy-4,8,10,14-tetramethylhexadecahydro-17H-cyclopenta[a]phenanthren-17-ylidene)-5-(tetrahydro-4H-pyran-4-ylidene)pentanoic acid], in the series on S. aureus ATCC 29213 [2], the “Resistance frequency relative to FA” value is listed as “worse resistance frequency relative to FA”. Also, in series [3], the “Metabolic Stability in Mouse Liver Microsomes (percent remaining)” value was 86 ± 5%. In the series on S. aureus 29213, the “Fold Change Increase in MIC with 50% Human Serum” value was 32X. For the same compound, the “Antibacterial activity relative to FA” value in the series with S. aureus ATCC 29213 [1] was “equipotent activity to FA”. In addition, in the series on S. aureus ATCC 29213 [1] (Staphylococcus aureus, ATCC29213, WT S. aureus ATCC 29213, n = 3, read-out: MIC Without Human Serum), the minimal inhibitory concentration (MIC) (as a rule, the lowest concentration found to suppress growth) was 0.125 µg/mL (≈ 0.224 µM).

`CC(=O)O[C@H]1C[C@@]2(C)[C@@H](C[C@@H](O)[C@H]3[C@@]4(C)CC[C@@H](O)[C@@H](C)[C@@H]4CC[C@@]32C)/C1=C(\CCCC(C)C)C(=O)O` [Compound 28, (Z)-2-((3R,4S,5S,8S,9S,10S,11R,13R,14S,16S)-16-acetoxy-3,11-dihydroxy-4,8,10,14-tetramethylhexadecahydro-17H-cyclopenta[a]phenanthren-17-ylidene)-6-methylheptanoic acid]: the “Antibacterial activity relative to FA” value in the series with S. aureus ATCC 29213 [1] is “modest decreases in potency relative to FA”.

Consider `CN[C@H](CC(C)C)C(=O)N[C@H]1C(=O)N[C@@H](CC(N)=O)C(=O)N[C@H]2C(=O)N[C@H]3C(=O)N[C@H](C(=O)N[C@H](C(=O)O)c4cc(O)cc(O)c4-c4cc3ccc4O)[C@H](O)c3ccc(c(Cl)c3)Oc3cc2cc(c3O[C@@H]2O[C@H](CO)[C@@H](O)[C@H](O)[C@H]2O[C@H]2C[C@](C)(N)[C@H](O)[C@H](C)O2)Oc2ccc(cc2Cl)[C@H]1O` [Vancomycin, vancomycin], for which the minimum inhibitory concentration (MIC) in series [4] (NRS3, S. aureus NRS3 (NARSA)) was 4 µg/mL (≈ 2.76 µM); in series [4] (NRS4, S. aureus NRS4 (NARSA)), 4 µg/mL (≈ 2.76 µM); in series [4] (NRS17, S. aureus NRS17 (NARSA)), 8 µg/mL (≈ 5.52 µM); in series [4] (NRS18, S. aureus NRS18 (NARSA)), 4 µg/mL (≈ 2.76 µM); in series [4] (NRS21, S. aureus NRS21 (NARSA)), 4 µg/mL (≈ 2.76 µM); in series [4] (NRS22, S. aureus NRS22 (NARSA)), 4 µg/mL (≈ 2.76 µM). For the same compound, the MIC was 4 µg/mL (≈ 2.76 µM) in series [4] (NRS23, S. aureus NRS23 (NARSA)); 4 µg/mL (≈ 2.76 µM) in series [4] (NRS24, S. aureus NRS24 (NARSA)); 2 µg/mL (≈ 1.38 µM) in series [4] (NRS26, S. aureus NRS26 (NARSA)); 4 µg/mL (≈ 2.76 µM) in series [4] (NRS27, S. aureus NRS27 (NARSA)); 2 µg/mL (≈ 1.38 µM) in series [4] (NRS29, S. aureus NRS29 (NARSA)); 4 µg/mL (≈ 2.76 µM) in series [4] (NRS51, S. aureus NRS51 (NARSA)). The MIC was 4 µg/mL (≈ 2.76 µM) in series [4] (NRS68, S. aureus NRS68 (NARSA)); 4 µg/mL (≈ 2.76 µM) in series [4] (NRS73, S. aureus NRS73 (NARSA)); 8 µg/mL (≈ 5.52 µM) in series [4] (NRS74, S. aureus NRS74 (NARSA)); 4 µg/mL (≈ 2.76 µM) in series [4] (NRS76, S. aureus NRS76 (NARSA)); 1 µg/mL (≈ 0.69 µM) in series [4] (NRS77, S. aureus NRS77 (NARSA), no noted resistance); 2 µg/mL (≈ 1.38 µM) in series [4] (NRS382, S. aureus NRS382 (NARSA)). In addition, the minimal inhibitory concentration (MIC) in series [4] (NRS383, S. aureus NRS383 (NARSA)) turned out to be 0.5 µg/mL (≈ 0.345 µM); in series [4] (NRS384, S. aureus NRS384 (NARSA)), 1 µg/mL (≈ 0.69 µM); in series [4] (S. aureus AR0561 (CDC)) it was 1 µg/mL (≈ 0.69 µM); in series [4] (S. aureus AR0562 (CDC)), 2 µg/mL (≈ 1.38 µM); in series [4] (S. aureus AR0563 (CDC)), 1 µg/mL (≈ 0.69 µM); in series [4] (S. aureus AR0564 (CDC)), 2 µg/mL (≈ 1.38 µM). In addition, the minimum inhibitory concentration (MIC) in series [4] (S. aureus AR0565 (CDC)) stood at 2 µg/mL (≈ 1.38 µM); in series [4] (S. aureus AR0566 (CDC)), 0.5 µg/mL (≈ 0.345 µM); in series [4] (S. aureus AR0567 (CDC)), 1 µg/mL (≈ 0.69 µM); in series [4] (S. aureus AR0568 (CDC)) it was 0.5 µg/mL (≈ 0.345 µM); in series [4] (S. aureus AR0570 (CDC)), 1 µg/mL (≈ 0.69 µM); in series [5] (Enterococcus faecium, E. faecium AR0572 (CDC)) it was 512 µg/mL (≈ 353 µM). Moreover, the minimal inhibitory concentration (MIC) stood at 0.5 µg/mL (≈ 0.345 µM) in series [5] (Enterococcus faecium, E. faecium AR0574 (CDC)); 512 µg/mL (≈ 353 µM) in series [5] (Enterococcus faecium, E. faecium AR0575 (CDC)); 1 µg/mL (≈ 0.69 µM) in series [5] (Enterococcus faecium, E. faecium AR0576 (CDC)); 0.5 µg/mL (≈ 0.345 µM) in series [5] (Enterococcus faecium, E. faecium AR0578 (CDC)); 0.5 µg/mL (≈ 0.345 µM) in series [5] (Enterococcus faecium, E. faecium AR0579 (CDC)); 512 µg/mL (≈ 353 µM) in series [5] (VRE with high levels of vancomycin resistance).
